Test results reported in US7173026B2, “Pyrrolo [2,1-c][1,4]benzodiazepine-anthraquinone conjugates useful as antitumour agents” (Council of Scientific and Industrial Research, priority 2004, dated 2007).

Key:
Format in all cases: cell-based
Details in all cases: 48 hours
HT-29 = experiment: In vitro cytotoxicity against human cancer cell lines (sulforhodamine B), HT-29
Method: (§1) In vitro cytotoxicity against human cancer cell lines: The human cancer cell lines procured from National Cancer Institute, Frederick, U.S.A or National Center for Cell Science; Pune, India. were used in present study. Cells were grown in tissue culture flasks in complete growth medium (RPMI-1640 medium with 2 mM glutamine, 100 μg/ml streptomycin, pH 7.4, sterilized by filtration and supplemented with 10% fetal calf serum and 100 units/ml penicillin before use) at 37° C. in an atmosphere of 5% CO2 and 90% relative humidity in a carbon dioxide incubator. The cells at subconfluent stage were harvested from the flask by treatment with trypsin (0.5% in PBS containing 0.02% EDTA) for determination of cytotoxicity. Cells with viability of more than 98% as determined by trypan blue exclusion were used for assay. Cell suspension of the required cell density were prepared in complete growth medium with gentamycin (50 μg/ml) for determination of cytotoxicity.
(§2) Stock solutions of (2×10–2 M of test material were prepared in DMSO (Dimethyl sulphoxide). The stock solutions were serially diluted with complete growth medium containing 50 μg/ml of gentamycin to obtain working test solutions of required concentrations.
(§3) In vitro cytotoxicity against human cancer cell lines was determined (Monks, A , Scudiero, D., Skehan, P., Shoemaker R., Paull, K., Vistica, D., Hose, C., Langley, j., Cronise, P., Vaigro-Wolff, A., Gray-Goodrich, M., Campbell, H., Mayo, J and Boyd m.J. Natl. Cancer Inst., 1991, 83, 757–766) using 96-well tissue culture plates. 100 μl of cell suspension was added to each well of the 96-well tissue culture plate. The cells were incubated for 24 hours. Test materials in complete growth medium (100 μl) were added after 24 hours incubation to the wells containing cell suspension. The plates were further incubated for 48 hours (at 37° C. in an atmosphere of […] 90% relative humidity in a carbon dioxide incubator) after addition of test material and then the cell growth was stopped by gently layering trichloroacetic acid (TCA, 50 μl, 50%) on top of the medium in all the wells. The plates were incubated at 4° C. for one hour to fix the cells attached to the bottom of the wells. The liquid of all the wells was gently pipetted out and discarded. The plates were washed five times with distilled water to remove TCA, growth medium low molecular weight metabolites, serum proteins etc and air-dried. Cell growth was measured by staining with sulforhodamine B dye (Skehan et al., 1990). The adsorbed dye was dissolved in Tris-Buffer (100 m l, 0.01M, pH 10.4) and plates were gently stirred for 5 minutes on a mechanical stirrer. The optical density was recorded on ELISA reader at 540 nm.
(§4) The cell growth was calculated by subtracting mean OD value of respective blank from the mean OD value of experimental set. Percent growth in presence of test material was calculated considering the growth in absence of any test material as 100% and in turn percent growth inhibition in presence of test material will be calculated.

A-549 = experiment: In vitro cytotoxicity against human cancer cell lines (sulforhodamine B), A-549
Method: as §1, §2, §3, §4

HCT-15 = experiment: In vitro cytotoxicity against human cancer cell lines (sulforhodamine B), HCT-15
Method: as §1, §2
as §3, with “The plates were washed five times with distilled water to remove TCA, growth medium low molecular weight metabolites, serum proteins etc and air-dried.” left out, “The adsorbed dye was dissolved in Tris-Buffer (100 m l, 0.01M, pH 10.4) and plates were gently stirred for 5 minutes on a mechanical stirrer.” left out
as §4

SiHa = experiment: In vitro cytotoxicity against human cancer cell lines (sulforhodamine B), SiHa
Method: as §1, §2, §3, §4

HOP-62 = experiment: In vitro cytotoxicity against human cancer cell lines (sulforhodamine B), HOP-62
Method: as §1, §2
as §3, with “The plates were washed five times with distilled water to remove TCA, growth medium low molecular weight metabolites, serum proteins etc and air-dried.” left out, “The adsorbed dye was dissolved in Tris-Buffer (100 m l, 0.01M, pH 10.4) and plates were gently stirred for 5 minutes on a mechanical stirrer.” left out
as §4

[1] = HT-29, concentration 10-4 mol/L
[2] = HT-29, concentration 10-5 mol/L
[3] = HT-29, concentration 10-6 mol/L
[4] = A-549, concentration 10-4 mol/L
[5] = A-549, concentration 10-5 mol/L
[6] = A-549, concentration 10-6 mol/L
[7] = HCT-15, concentration 10-5 mol/L
[8] = HCT-15, concentration 10-6 mol/L
[9] = HOP-62, concentration 10-5 mol/L
[10] = HOP-62, concentration 10-6 mol/L

Row | SMILES | percentage growth inhibition (HT-29; [1]) | percentage growth inhibition (HT-29; [2]) | percentage growth inhibition (HT-29; [3]) | percentage growth inhibition (A-549; [4]) | percentage growth inhibition (A-549; [5]) | percentage growth inhibition (A-549; [6]) | percentage growth inhibition (HCT-15; [7]) | percentage growth inhibition (HCT-15; [8]) | percentage growth inhibition (SiHa; concentration 10-4 mol/L) | percentage growth inhibition (SiHa; concentration 10-5 mol/L) | percentage growth inhibition (SiHa; concentration 10-6 mol/L) | percentage growth inhibition (HOP-62; [9]) | percentage growth inhibition (HOP-62; [10])
1 | COc1cc2c(cc1OCCCC(=O)Nc1cccc3c1C(=O)c1ccccc1C3=O)N=C[C@@H]1CCCN1C2=O [compound Va, 7-Methoxy-8-[N-(9,10-dihydro-9,10-dioxo-1-anthracenyl)-propane-3-carboxamide]-oxy-(11aS)-1,2,3,11a tetrahydro-5H-pyrrolo[2,1-c][1,4]benzodiazepin-5-one] | 93% | 86% | 68% | 93% | 27% | 47% | 66% | 59% | 57% | 52% | 41% | 90% | 74%
2 | COc1cc2c(cc1OCCCCC(=O)Nc1cccc3c1C(=O)c1ccccc1C3=O)N=C[C@@H]1CCCN1C2=O [compound Vc, 7-Methoxy-8-[N-(9,10-dihydro-9,10-dioxo-1-anthracenyl)-butane-4-carboxamide]-oxy-(11aS)-1,2,3,11a tetrahydro-5H-pyrrolo [2,1-c][1,4]benzodiazepin-5-one] | 93% | 87% | 73% | 93% | 10% | 56% | 82% | 61% | 73% | 49% | 40% | 97% | 73%
